Data on 25 compounds can be found in patent US9475817B2 (BRISTOL-MYERS SQUIBB COMPANY, priority 2012, dated 2016).

In one assay the target is CK1ε (Homo sapiens (Human), UniProt P49674). The assay can be described thus: CK1ε kinase assay (Caliper LabChip, fluoresceinated peptide substrate). Type of assay: biochemical. The note with it: 200 pM CK1ε, 50 μM ATP, 1.5 μM peptide substrate, 22 hours room temperature. As to the method:
(§1) CK1ε and CK1δ Kinase Assays
(§2) The kinase assay was performed in V-bottom 384-well plates. […] The reaction was incubated at room temperature for 22 hours and terminated by adding 45 μl of 35 mM EDTA to each sample. […] Compounds were dissolved at 10 mM in dimethylsulfoxide (DMSO) and evaluated at eleven concentrations. IC50 values were derived by non-linear regression analysis.

Another assay deals with CK1δ (Homo sapiens (Human), UniProt P48730). The assay can be described thus: CK1δ kinase assay (Caliper LabChip, fluoresceinated peptide substrate). It is filed as biochemical. The note with it: 200 pM CK1δ, 50 μM ATP, 1.5 μM peptide substrate, 22 hours room temperature. Here is the method:
as §1, §2

What is called IC50 is the concentration that inhibits the measured activity by half.

Counter-ions that a name gives are not always drawn.

Sequence of CK1δ (P48730 whole entry): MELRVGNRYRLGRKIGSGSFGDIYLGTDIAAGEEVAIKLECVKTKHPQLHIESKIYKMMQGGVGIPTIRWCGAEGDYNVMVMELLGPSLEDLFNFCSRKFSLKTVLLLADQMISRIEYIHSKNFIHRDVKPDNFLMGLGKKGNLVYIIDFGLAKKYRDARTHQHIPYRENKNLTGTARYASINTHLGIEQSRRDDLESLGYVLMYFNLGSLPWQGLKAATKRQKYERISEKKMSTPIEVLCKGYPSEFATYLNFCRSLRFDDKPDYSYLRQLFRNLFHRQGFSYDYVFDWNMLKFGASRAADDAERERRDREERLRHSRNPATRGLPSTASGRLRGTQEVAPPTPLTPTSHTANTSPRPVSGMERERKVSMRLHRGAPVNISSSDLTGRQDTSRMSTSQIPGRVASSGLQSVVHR
Sequence of CK1ε (P49674 whole entry): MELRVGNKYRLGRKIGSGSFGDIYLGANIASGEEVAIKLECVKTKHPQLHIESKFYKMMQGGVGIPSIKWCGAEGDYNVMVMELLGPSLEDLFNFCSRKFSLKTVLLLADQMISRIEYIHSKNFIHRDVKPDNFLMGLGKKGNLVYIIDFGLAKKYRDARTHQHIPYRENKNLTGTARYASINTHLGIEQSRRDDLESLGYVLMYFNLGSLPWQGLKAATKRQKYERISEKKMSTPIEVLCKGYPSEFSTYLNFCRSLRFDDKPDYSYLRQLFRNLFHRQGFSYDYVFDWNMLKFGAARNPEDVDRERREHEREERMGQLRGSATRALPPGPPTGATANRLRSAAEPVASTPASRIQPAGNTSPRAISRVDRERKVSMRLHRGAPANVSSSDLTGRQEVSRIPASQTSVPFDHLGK

`Cn1cc(-c2ccc3nc(NC(=O)c4cnn(C)c4Cl)cn3n2)c(-c2ccc(F)cc2)n1` [Compound 60, 5-chloro-N-(6-(3-(4-fluorophenyl)-1-methyl-1H-pyrazol-4-yl)imidazo[1,2-b]pyridazin-2-yl)-1-methyl-1H-pyrazole-4-carboxamide]: the IC50 at CK1ε was found to be 13.1 nM; against CK1δ, 5.5 nM.
For `Cn1cc(-c2ccc3nc(NC(=O)c4cc(Cl)ccc4F)cn3n2)c(-c2ccc(F)cc2)n1` [Compound 47, 5-chloro-2-fluoro-N-(6-(3-(4-fluorophenyl)-1-methyl-1H-pyrazol-4-yl)imidazo[1,2-b]pyridazin-2-yl)benzamide], in that order: 19.9 nM and 5.2 nM.
For `Cn1nc(-c2ccc(F)cc2)c(-c2ccc3nc(NC(=O)c4ccncc4)cn3n2)c1N1CCN(Cc2ccon2)CC1` [Compound 131, N-(6-(3-(4-Fluorophenyl)-5-(4-(isoxazol-3-ylmethyl)piperazin-1-yl)-1-methyl-1H-pyrazol-4-yl)imidazo[1,2-b]pyridazin-2-yl)isonicotinamide], in that order: 3.1 nM and 0.3 nM.
Regarding `Cn1nc(-c2ccc(F)cc2)c(-c2ccc3nc(NC(=O)c4ccnc(N5CCOCC5)c4)cn3n2)c1N1CCN(C(=O)CC(F)(F)F)CC1` [Compound 138, N-(6-(3-(4-Fluorophenyl)-1-methyl-5-(4-(3,3,3-trifluoropropanoyl)piperazin-1-yl)-1H-pyrazol-4-yl)imidazo[1,2-b]pyridazin-2-yl)-2-morpholinoisonicotinamide], the concentration for half-maximal inhibition (IC50) on CK1ε worked out at 9.3 nM; on CK1δ, 1.6 nM.
With `Cn1cc(-c2ccc3nc(NC(=O)C4CCCC4)cn3n2)c(-c2ccc(F)cc2)n1` [Compound 86, N-(6-(3-(4-fluorophenyl)-1-methyl-1H-pyrazol-4-yl)imidazo[1,2-b]pyridazin-2-yl)cyclopentanecarboxamide], the results for the concentration for half-maximal inhibition (IC50) against CK1ε and against CK1δ were 15.7 nM and 5.6 nM, respectively.
The like results for `Cc1nc(-c2ccncc2)sc1C(=O)Nc1cn2nc(-c3c(-c4ccc(F)cc4)nn(C)c3C3CCOCC3)ccc2n1` [Compound 200, N-(6-(3-(4-Fluorophenyl)-1-methyl-5-(tetrahydro-2H-pyran-4-yl)-1H-pyrazol-4-yl)imidazo[1,2-b]pyridazin-2-yl)-4-methyl-2-(pyridin-4-yl)thiazole-5-carboxamide] were, in that order, 3 nM and 0.3 nM.
The like results for `Cc1nc(-c2ccccc2)sc1C(=O)Nc1cn2nc(-c3cn(C)nc3-c3ccc(F)cc3)ccc2n1` [Compound 7, N-(6-(3-(4-fluorophenyl)-1-methyl-1H-pyrazol-4-yl)imidazo[1,2-b]pyridazin-2-yl)-4-methyl-2-phenylthiazol-5-carboxamide] were, in that order, 34.1 nM and 8.3 nM.
For `Cc1nc(-c2ccncc2)sc1C(=O)Nc1cn2nc(-c3c(-c4ccc(F)cc4)nn(C)c3C3CCN(CCC#N)CC3)ccc2n1` [Compound 183, N-(6-(5-(1-(2-Cyanoethyl)piperidin-4-yl)-3-(4-fluorophenyl)-1-methyl-1H-pyrazol-4-yl)imidazo[1,2-b]pyridazin-2-yl)-4-methyl-2-(pyridin-4-yl)thiazole-5-carboxamide], in that order: 2.4 nM and 0.4 nM.
Regarding `Cc1nc(-c2cccnc2)sc1C(=O)Nc1cn2nc(-c3cn(C4CC4)nc3-c3ccc(F)cc3)ccc2n1` [Compound 109, N-(6-(1-cyclopropyl-3-(4-fluorophenyl)-1H-pyrazol-4-yl)imidazo[1,2-b]pyridazin-2-yl)-4-methyl-2-(pyridin-3-yl)thiazole-5-carboxamide], the half-maximal inhibitory concentration (IC50) against CK1ε was determined as 12.3 nM; against CK1δ, 2.5 nM.
On to `Cn1cc(-c2ccc3nc(NC(=O)c4cnccc4C(F)(F)F)cn3n2)c(-c2ccc(F)cc2)n1` [Compound 63, N-(6-(3-(4-fluorophenyl)-1-methyl-1H-pyrazol-4-yl)imidazo[1,2-b]pyridazin-2-yl)-4-(trifluoromethyl) nicotinamide], for which the IC50 on CK1ε worked out at 34.8 nM; at CK1δ, 8 nM.
Turning to `CCN(CC)Cc1ccc(C(=O)Nc2cn3nc(-c4cn(C)nc4-c4ccc(F)cc4)ccc3n2)cc1` [Compound 31, 4-((diethylamino)methyl)-N-(6-(3-(4-fluorophenyl)-1-methyl-1H-pyrazol-4-yl)imidazo[1,2-b]pyridazin-2-yl)benzamide], the half-maximal inhibitory concentration (IC50) against CK1ε worked out at 6.3 nM; on CK1δ, 3.9 nM.
Consider `Cn1nc(-c2ccc(F)cc2)c(-c2ccc3nc(NC(=O)c4ccnc(N)c4)cn3n2)c1N1CCNCC1` [Compound 140, 2-Amino-N-(6-(3-(4-fluorophenyl)-1-methyl-5-(piperazin-1-yl)-1H-pyrazol-4-yl)imidazo[1,2-b]pyridazin-2-yl)isonicotinamide], for which the figures for the IC50 against CK1ε and on CK1δ were 2.4 nM and 2.5 nM, respectively.
For `Cn1nc(-c2ccc(F)cc2)c(-c2ccc3nc(NC(=O)c4ccncc4)cn3n2)c1C1CCN(Cc2cc[nH]n2)CC1` [Compound 170, N-(6-(5-(1-((1H-pyrazol-3-yl)methyl)piperidin-4-yl)-3-(4-fluorophenyl)-1-methyl-1H-pyrazol-4-yl)imidazo[1,2-b]pyridazin-2-yl) isonicotinamide], the values for the 50% inhibitory concentration (IC50) on CK1ε and on CK1δ were 7.4 nM and 2.6 nM, respectively.
For `Cc1nc(-c2cccnc2)sc1C(=O)Nc1cn2nc(-c3c(-c4ccc(F)cc4)nn(C)c3C3CCN(C)CC3)ccc2n1` [Compound 175, N-(6-(3-(4-Fluorophenyl)-1-methyl-5-(1-methylpiperidin-4-yl)-1H-pyrazol-4-yl)imidazo[1,2-b]pyridazin-2-yl)-4-methyl-2-(pyridin-3-yl)thiazole-5-carboxamide], in that order: 4 nM and 3 nM.
The like results for `Cn1nc(-c2ccc(F)cc2)c(-c2ccc3nc(NC(=O)c4ccncc4)cn3n2)c1C1CCOCC1` [Compound 197, N-(6-(3-(4-Fluorophenyl)-1-methyl-5-(tetrahydro-2H-pyran-4-yl)-1H-pyrazol-4-yl)imidazo[1,2-b]pyridazin-2-yl)isonicotinamide] were, in that order, 1.8 nM and 0.3 nM.
For `Cn1nc(-c2ccc(F)cc2)c(-c2ccc3nc(NC(=O)c4ccncc4)cn3n2)c1N1CCN(C(=O)CC(F)(F)F)CC1` [Compound 132, N-(6-(3-(4-Fluorophenyl)-1-methyl-5-(4-(3,3,3-trifluoropropanoyl)piperazin-1-yl)-1H-pyrazol-4-yl)imidazo[1,2-b]pyridazin-2-yl)isonicotinamide], in that order: 6.7 nM and 0.6 nM.
Turning to `Cn1cc(-c2ccc3nc(NC(=O)c4cc(-c5ccc(F)cc5)ncn4)cn3n2)c(-c2ccc(F)cc2)n1` [Compound 33, 6-(4-fluorophenyl)-N-(6-(3-(4-fluorophenyl)-1-methyl-1H-pyrazol-4-yl)imidazo[1,2-b]pyridazin-2-yl)pyrimidine-4-carboxamide], the IC50 at CK1ε was 454 nM; on CK1δ, 30.4 nM.
The like results for `Cc1c(NC(=O)c2ccccc2)nc2ccc(-c3cn(C)nc3-c3ccc(F)cc3)nn12` [Compound 195, N-(6-(3-(4-Fluorophenyl)-1-methyl-1H-pyrazol-4-yl)-3-methylimidazo[1,2-b]pyridazin-2-yl)benzamide, 2 TFA] were, in that order, 137 nM and 54 nM.
For `O=C(Nc1cn2nc(-c3cn(C4CC4)nc3-c3ccc(F)cc3)ccc2n1)c1ccnc(F)c1` [Compound 104, N-(6-(1-cyclopropyl-3-(4-fluorophenyl)-1H-pyrazol-4-yl)imidazo[1,2-b]pyridazin-2-yl)-2-fluoroisonicotinamide], the 50% inhibitory concentration (IC50) at CK1ε came to 15.2 nM; against CK1δ, 3.2 nM.
The like results for `Cn1nc(-c2ccc(F)cc2)c(-c2ccc3nc(NC(=O)c4ccnc(F)c4)cn3n2)c1C1CCN(C(=O)c2ccon2)CC1` [Compound 153, 2-fluoro-N-(6-(3-(4-fluorophenyl)-5-(1-(isoxazole-3-carbonyl)piperidin-4-yl)-1-methyl-1H-pyrazol-4-yl)imidazo[1,2-b]pyridazin-2-yl)isonicotinamide] were, in that order, 2.2 nM and 0.3 nM.
Consider `Cn1nc(-c2ccc(F)cc2)c(-c2ccc3nc(NC(=O)c4cccc(-c5cccnc5)c4)cn3n2)c1-c1ccncc1` [Compound 205, N-(6-(3-(4-Fluorophenyl)-1-methyl-5-(pyridin-4-yl)-1H-pyrazol-4-yl)imidazo[1,2-b]pyridazin-2-yl)-3-(pyridin-3-yl)benzamide], for which the figures for the IC50 against CK1ε and at CK1δ were 9.8 nM and 0.9 nM, respectively.
For `Cn1cc(-c2ccc3nc(NC(=O)c4ccnc(F)c4)cn3n2)c(-c2ccc(F)cc2)n1` [Compound 54, 2-fluoro-N-(6-(3-(4-fluorophenyl)-1-methyl-1H-pyrazol-4-yl)imidazo[1,2-b]pyridazin-2-yl)isonicotinamide], in that order: 14 nM and 4.5 nM.
In the case of `Cc1ccncc1C(=O)Nc1cn2nc(-c3cn(C)nc3-c3ccc(F)cc3)ccc2n1` [Compound 73, N-(6-(3-(4-fluorophenyl)-1-methyl-1H-pyrazol-4-yl)imidazo[1,2-b]pyridazin-2-yl)-4-methylnicotinamide], the IC50 on CK1ε turned out to be 6.4 nM; against CK1δ it was 2.6 nM.
The like results for `Cn1cc(-c2ccc3nc(NC(=O)c4nccs4)cn3n2)c(-c2ccc(F)cc2)n1` [Compound 37, N-(6-(3-(4-fluorophenyl)-1-methyl-1H-pyrazol-4-yl)imidazo[1,2-b]pyridazin-2-yl)thiazole-2-carboxamide] were, in that order, 116 nM and 30.5 nM.
The like results for `Cn1nc(-c2ccc(F)cc2)c(-c2ccc3nc(NC(=O)c4ccncc4)cn3n2)c1C1CCN(Cc2nccs2)CC1` [Compound 173, N-(6-(3-(4-fluorophenyl)-1-methyl-5-(1-(thiazol-2-ylmethyl)piperidin-4-yl)-1H-pyrazol-4-yl)imidazo[1,2-b]pyridazin-2-yl) isonicotinamide] were, in that order, 6.4 nM and 1.5 nM.
